Reference: patent US20200046837A1, “UROGENITAL MEDICAL DEVICE FORMULATION BASED ON SUITABLE BIOCHEMICAL COMPOSITIONS FOR THE STABILIZATION OF THE ACIDITY AND THE REDOX STATE OF THE VAGINAL FLUID” (PROBIOSWISS AG, priority 2016, published 2020)
Read-outs that look alike come from different tables or passages of the source. One block for each molecule: values may come before it.

Columns and labels:
[1] = Redox potential and pH of media formulation before and after addition of test compounds; conditions: M17-type medium
Experimental: After measurement of redox potential and pH several compounds (nitrogen and sulphur sources) were added to this medium and their effect on pH and redox potential was determined.
Redox values were read after the signal was stable for at least 30 seconds. In addition the pH was measured using a standard pH Electrode connected to a MP225 pH Meter (Mettler Toledo).

[2] = system: bacterial vaginosis; conditions: women with a negative redox potential; cited from earlier work
[3] = system: Gram-positive bacteria such as Lactobacilli; conditions: cited from earlier work
[4] = system: tested lactobacilli (gasseri, crispatus and jensenii)
[5] = system: S. aureus; conditions: cited from earlier work
[6] = system: Lactobacillus gasseri KS 120.1; conditions: for OD: OD at 590 nm
Experimental: (§1) Growth was determined by measurement of optical density and pH at start, after 6 hours and after 24 hours.
(§2) All cultures were re-activated from cryopreserved (−80° C.) working stocks by cultivation on MRS agar for 1 to 3 days. A single colony from these plates was used to inoculate 5 ml of MRS broth. After incubation overnight, 10^7 cfu/ml were used to carry out the experiments.

[7] = system: Lactobacillus jensenii KS 119.1; conditions: for OD: OD at 590 nm
Experimental: as §1, §2

[8] = system: Aspergillus niger; conditions: cited from earlier work
[9] = system: Saccharomyces cerevisiae; conditions: cited from earlier work
[10] = system: K. pneumoniae; conditions: cited from earlier work
[11] = system: Lactobacillus crispatus KS 119.4; conditions: for OD: OD at 590 nm;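 on all read-outs here: growth in MRS broth cultures, followed via optical density and pH at the start, after 6 h and after 24 h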
[12] = system: Penicillium notatum; conditions: cited from earlier work
[13] = system: E. coli; conditions: cited from earlier work

- redox potential (Eh) of the medium after addition of the compound [1]: −36 mV
SMILES: O=S(O)(O)=S [thiosulfate, Na-Thiosulfate]

- effect of the added compound on the redox potential [1]: high positive redox potential
SMILES: CS(C)(=O)=O [MSM, dimethylsulfone]

- redox potential (Eh) of the medium after addition of the compound [1]: −103 mV
SMILES: N[C@@H](CS)C(=O)O [Cysteine]

- redox potential (Eh) of the medium after addition of the compound [1]: ~300 mV
SMILES: N[C@@H](CCC(=O)O)C(=O)O [glutamic acid, L-Glutamic acid]

SMILES: Cc1ncc([N+](=O)[O-])n1CCO [metronidazole]
- vaginal redox potential after a successful cure [2]: returned to a positive one

- effect of the added compound on the redox potential [1]: high positive redox potential
SMILES: N[C@@H](CSSC[C@H](N)C(=O)O)C(=O)O [Cystine]

SMILES: Clc1ccccc1C(c1ccccc1)(c1ccccc1)n1ccnc1 [Clotrimazole]
- activity against Gram-positive bacteria [3]: bactericidal activity

SMILES: C/C=C/C=C/C(=O)[O-].[K+] [Potassium Sorbate, potassium sorbate]
- concentration required for a slight inhibition [4]: ≥ 0.5%
- microbiostatic concentration for the inhibition of growth [5]: 50 to 100 µg/mL
- Interpretation ([6]; potassium sorbate 1.00%): 1
- pH ([6]; potassium sorbate 1.00%, 0 h): 5.16
- OD ([6]; potassium sorbate 1.00%, 0 h): 0.54
- pH ([6]; potassium sorbate 1.00%, 6 h): 5
- OD ([6]; potassium sorbate 1.00%, 6 h): 0.78
- pH ([6]; potassium sorbate 1.00%, 24 h): 5.07
- OD ([6]; potassium sorbate 1.00%, 24 h): 0.97
- Interpretation ([6]; potassium sorbate […]): 1
- pH ([6]; potassium sorbate […], 0 h): 5.31
- OD ([6]; potassium sorbate […], 0 h): 0.53
- pH ([6]; potassium sorbate […], 6 h): 5.26
- OD ([6]; potassium sorbate […], 6 h): 0.73
- pH ([6]; potassium sorbate […], 24 h): 5.26
- OD ([6]; potassium sorbate […], 24 h): 0.72
- Interpretation ([7]; potassium sorbate 0.10%): 0
- pH ([7]; potassium sorbate 0.10%, 0 h): 4.5
- OD ([7]; potassium sorbate 0.10%, 0 h): 0.08
- pH ([7]; potassium sorbate 0.10%, 6 h): 4.5
- OD ([7]; potassium sorbate 0.10%, 6 h): 0.23
- pH ([7]; potassium sorbate 0.10%, 24 h): 4.5
- OD ([7]; potassium sorbate 0.10%, 24 h): 0.44
- Interpretation ([7]; potassium sorbate 0.50%): 1
- pH ([7]; potassium sorbate 0.50%, 0 h): 4.5
- OD ([7]; potassium sorbate 0.50%, 0 h): 0.07
- pH ([7]; potassium sorbate 0.50%, 6 h): 4.5
- OD ([7]; potassium sorbate 0.50%, 6 h): 0.11
- pH ([7]; potassium sorbate 0.50%, 24 h): 4.85
- OD ([7]; potassium sorbate 0.50%, 24 h): 0.124
- Interpretation ([7]; potassium sorbate 1.00%): 2
- pH ([7]; potassium sorbate 1.00%, 0 h): 5.03
- OD ([7]; potassium sorbate 1.00%, 0 h): 0.18
- pH ([7]; potassium sorbate 1.00%, 6 h): 5.01
- OD ([7]; potassium sorbate 1.00%, 6 h): 0.26
- pH ([7]; potassium sorbate 1.00%, 24 h): 5.09
- OD ([7]; potassium sorbate 1.00%, 24 h): 0.16
- Interpretation ([7]; potassium sorbate […]): 2
- pH ([7]; potassium sorbate […], 0 h): 5.32
- OD ([7]; potassium sorbate […], 0 h): 0.17
- pH ([7]; potassium sorbate […], 6 h): 5.18
- OD ([7]; potassium sorbate […], 6 h): 0.24
- pH ([7]; potassium sorbate […], 24 h): 5.25
- OD ([7]; potassium sorbate […], 24 h): 0.13
- microbiostatic concentration for the inhibition of growth [8]: 200 to 500 µg/mL
- microbiostatic concentration for the inhibition of growth [9]: 50 to 100 µg/mL
- microbiostatic concentration for the inhibition of growth [10]: 50 to 100 µg/mL
- Interpretation ([11]; potassium sorbate 0.01%): 0
- pH ([11]; potassium sorbate 0.01%, 0 h): 4.71
- OD ([11]; potassium sorbate 0.01%, 0 h): 0.7
- pH ([11]; potassium sorbate 0.01%, 6 h): 4.42
- OD ([11]; potassium sorbate 0.01%, 6 h): 1.36
- pH ([11]; potassium sorbate 0.01%, 24 h): 4.35
- OD ([11]; potassium sorbate 0.01%, 24 h): 1.47
- Interpretation ([11]; potassium sorbate 0.05%): 0
- pH ([11]; potassium sorbate 0.05%, 0 h): 4.69
- OD ([11]; potassium sorbate 0.05%, 0 h): 0.6
- pH ([11]; potassium sorbate 0.05%, 6 h): 4.43
- OD ([11]; potassium sorbate 0.05%, 6 h): 1.16
- pH ([11]; potassium sorbate 0.05%, 24 h): 4.32
- OD ([11]; potassium sorbate 0.05%, 24 h): 1.24
- Interpretation ([11]; potassium sorbate 0.10%): 0
- pH ([11]; potassium sorbate 0.10%, 0 h): 4.7
- OD ([11]; potassium sorbate 0.10%, 0 h): 0.68
- pH ([11]; potassium sorbate 0.10%, 6 h): 4.48
- OD ([11]; potassium sorbate 0.10%, 6 h): 1.34
- pH ([11]; potassium sorbate 0.10%, 24 h): 4.44
- OD ([11]; potassium sorbate 0.10%, 24 h): 1.24
- Interpretation ([11]; potassium sorbate 0.50%): 0
- pH ([11]; potassium sorbate 0.50%, 0 h): 4.97
- OD ([11]; potassium sorbate 0.50%, 0 h): 0.67
- pH ([11]; potassium sorbate 0.50%, 6 h): 4.73
- OD ([11]; potassium sorbate 0.50%, 6 h): 1.24
- pH ([11]; potassium sorbate 0.50%, 24 h): 4.77
- OD ([11]; potassium sorbate 0.50%, 24 h): 1.15
- Interpretation ([11]; potassium sorbate 1.00%): 1
- pH ([11]; potassium sorbate 1.00%, 0 h): 5.8
- OD ([11]; potassium sorbate 1.00%, 0 h): 0.65
- pH ([11]; potassium sorbate 1.00%, 6 h): 5.01
- OD ([11]; potassium sorbate 1.00%, 6 h): 1.13
- pH ([11]; potassium sorbate 1.00%, 24 h): 5.08
- OD ([11]; potassium sorbate 1.00%, 24 h): 0.96
- Interpretation ([11]; potassium sorbate […]): 1
- pH ([11]; potassium sorbate […], 0 h): 5.32
- OD ([11]; potassium sorbate […], 0 h): 0.64
- pH ([11]; potassium sorbate […], 6 h): 5.2
- OD ([11]; potassium sorbate […], 6 h): 0.99
- pH ([11]; potassium sorbate […], 24 h): 5.26
- OD ([11]; potassium sorbate […], 24 h): 0.76
- microbiostatic concentration for the inhibition of growth [12]: 200 to 500 µg/mL
- microbiostatic concentration for the inhibition of growth [13]: 50 to 100 µg/mL
